From PubChem BioAssay (NCI)
Values joined by “and” are separate entries in the source; they are usually repeats but may differ in a detail not shown here. Equal values may be shown once.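 Values below derive from 48-hour exposures of cells grown in 96-well plates, with endpoints linearly interpolated between the two concentrations bracketing the appropriate inhibition level. GI50 marks 50% less growth. At the TGI there is no net growth.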

How the values were obtained:
Assay in all cases: NCI anticancer screen, dose series, 48 h
MOLT-4 leukemia = tested on: MOLT-4 leukemia
TK-10 renal = tested on: TK-10 renal
IGROV1 ovarian = tested on: IGROV1 ovarian
HCC-2998 colon = tested on: HCC-2998 colon
UACC-257 melanoma = tested on: UACC-257 melanoma
UACC-62 melanoma = tested on: UACC-62 melanoma
SR leukemia = tested on: SR leukemia
MDA-MB-231 breast = tested on: MDA-MB-231 breast
COLO 205 colon = tested on: COLO 205 colon
SNB-75 CNS = tested on: SNB-75 CNS
OVCAR-5 ovarian = tested on: OVCAR-5 ovarian

| SMILES | TGI (MOLT-4 leukemia) [µM] | TGI (TK-10 renal) [µM] | TGI (IGROV1 ovarian) [µM] | TGI (HCC-2998 colon) [µM] | TGI (UACC-257 melanoma) [µM] | TGI (UACC-62 melanoma) [µM] | TGI (SR leukemia) [µM] | TGI (MDA-MB-231 breast) [µM] | TGI (COLO 205 colon) [µM] | TGI (SNB-75 CNS) [µM] | TGI (OVCAR-5 ovarian) [µM] | GI50 (TK-10 renal) | GI50 (IGROV1 ovarian) | GI50 (SNB-75 CNS) |
| --- | --- | --- | --- | --- | --- | --- | --- | --- | --- | --- | --- | --- | --- | --- |
| N=c1ncn(C/C=C/c2ccccc2)c2nc[nH]c12 | 36.5 | > 100 | > 100 | > 100 | > 100 | > 100 | > 100 | > 100 | > 100 | > 100 | > 100 |  |  |  |
| O=C(CC(=O)N1N=C(c2ccccc2)C(N=Nc2ccc(S(=O)(=O)CCOS(=O)(=O)O)cc2)C1=O)Nc1ccc(Cl)cc1 (centres undefined) | > 100 | > 100 | 72.3 | > 100 | > 100 | > 100 | > 100 | > 100 | > 100 | > 100 | > 100 |  |  |  |
| Cc1cc2nc3c(C#N)c(C)c(CCCl)c(Cl)n3c2cc1C | 6.95 | 4.24 | 3.93 | 6.23 | 5.02 | 4.12 | 5.81 | 3.66 | 14.8 | 4.63 | 5.86 |  |  |  |
| O=C1CCCC1CC(CN1CCOCC1)Sc1nnnn1-c1ccccc1 (centres undefined) | > 100 |  | > 100 | > 100 | > 100 | > 100 | > 100 | > 100 | 33.1 | 96.7 | > 100 |  |  |  |
| O=C(CCCCCNC(=O)c1ccc(Cl)cc1)NO | > 100 | 16.4 | 25 | 18.3 | 14.5 | 12.1 | 53.7 | 21 | 10.5 | 30.8 | 8.43 |  |  |  |
| CCCCCCCCCCCC(=O)N(CCCCCCCCC)CC(O)C(O)C(OC1OC(CO)C(O)C(O)C1O)C(O)CO (centres undefined) | 40.3 | 29.8 | 33.6 | 32 | 31.4 | 34.1 | 42.4 | 43.2 | 36.9 | 34.3 | 49.3 |  |  |  |
| O/N=C1\C/C(=N\O)c2c(Br)sc(Br)c21 | 92.7 | > 100 | 97.8 | 50.2 | > 100 | > 100 | > 100 | > 100 | > 100 | 51.3 |  |  |  |  |
| O=c1c(O)c(-c2ccccc2)oc2c(CP(=O)(O)O)cccc12 | > 100 | > 100 | > 100 | > 100 | > 100 | > 100 | > 100 | > 100 | > 100 |  | > 100 |  |  |  |
| CCOC(=O)c1ccc2nc3n(c2c1)C(c1c(F)cccc1F)SC3 (centres undefined) | > 100 | > 100 | > 100 | > 100 | > 100 | > 100 | > 100 | > 100 | > 100 | > 100 | > 100 |  |  |  |
| N#Cc1ccc(-c2ccc(Cl)cc2)n(C2OC(CO)C(O)C(O)C2O)c1=S (centres undefined) | > 100 | > 100 | > 100 | > 100 | > 100 | > 100 | > 100 | > 100 |  | > 100 | > 100 | > 100 µM and 49 µM | > 100 µM and 28 µM | 43.1 µM and 19.8 µM |
| COc1ccc(/C(=N/O)c2ccccc2C2=Nc3ccccc3C(NCc3ccccc3)O2)cc1C (centres undefined) | > 100 |  | > 100 | > 100 | 41.9 | 88.7 | > 100 | > 100 | 38.9 | 75.4 | > 100 |  |  |  |
| NC(=Nc1ccccc1)N/N=C/c1c[nH]c2ccccc12 | 48.4 | 18.9 | 32.7 | 2.35 | 12.2 | 6.84 | > 50.1 | 6.83 | 0.67 | 5.56 | 15 |  |  |  |
| CCOC(=O)c1nc2ccccc2nc1Nc1ccc(C(=O)OC)s1 | > 100 | > 100 | > 100 | > 100 | > 100 | > 100 | > 100 | > 100 | > 100 | > 100 | > 100 |  |  |  |
| CC1(C)C2CC3C(C)(C2)C31c1cc(Cl)ccc1N (centres undefined) | 22.7 | 29.1 | 27.6 | 28.2 | 26.4 | 29.1 | 22 | 30 | 33.2 | 24.3 | 29.4 |  |  |  |
| Cc1cn(C2CC(O)C(Cn3nncc3Cn3nc(Br)c(=O)[nH]c3=O)O2)c(=O)[nH]c1=O (centres undefined) | > 100 | > 100 | > 100 | > 100 | > 100 | > 100 | > 100 | > 100 | > 100 |  | > 100 |  |  |  |
| CCOc1ccc2c(c1)C(/C(C(Cl)=C(Cl)Cl)=[N+](/[O-])OC(=O)c1ccccc1)=N2 | > 100 | > 100 |  | > 100 | > 100 | > 100 | > 100 | > 100 | > 100 | > 100 | > 100 |  |  |  |
| NC1(c2cc3ccccc3s2)CCCCCC1 | 32.6 | 28.8 | 32.6 | 4.49 | 30.1 | 31.9 | 36.6 | 29.1 | 26.5 | 23.2 | 28.7 |  |  |  |
| O=C1C(c2ccccc2)=C(c2ccccc2)C1(Cl)Cl | 6.97 | 2.81 | 15.3 | 13.3 | 9.36 | 4.13 | 4.82 | 7.84 | 6.4 | 16.6 | 20.8 |  |  |  |
